Patent publication US12507703B2, “Methods, devices and compositions for preserving human milk” (The Trustees of Princeton University, priority 2023, dated 2025)
Values joined by “and” are separate entries in the source; they are usually repeats but may differ in a detail not shown here. Equal entries are not always repeated. Where a SMILES comes first, the peptide text is derived from it.

The compounds below were run on lipase (assay: Lipase/lipolysis assay (EnzChek Lipase Substrate, quenched BODIPY-fatty acid conjugate) on stored human milk; for Lipase (RFU): test concentration or dose not given here).

Row | Compound | Lipase (RFU) | Hit in lipase inhibition screen (in words)
1 | CC(C)=CCC[C@](C)(O[C@@H]1O[C@H](CO[C@@H]2OC[C@H](O)[C@H](O)[C@H]2O)[C@@H](O)[C@H](O)[C@H]1O)[C@H]1CC[C@]2(C)[C@@H]1[C@H](O)C[C@@H]1[C@@]3(C)CC[C@H](O[C@@H]4O[C@H](CO)[C@@H](O)[C@H](O)[C@H]4O[C@@H]4O[C@H](CO)[C@@H](O)[C@H](O)[C@H]4O)C(C)(C)[C@@H]3CC[C@]12C [Ginsenoside Rb2] | 872.7793 RFU | 
2 | CC(C)=CCC[C@](C)(O[C@@H]1O[C@H](CO)[C@@H](O)[C@H](O)[C@H]1O)[C@H]1CC[C@]2(C)[C@@H]1[C@H](O)C[C@@H]1[C@@]3(C)CC[C@H](O)C(C)(C)[C@@H]3[C@@H](O[C@@H]3O[C@H](CO)[C@@H](O)[C@H](O)[C@H]3O)C[C@]12C [Ginsenoside Rg1] | 1026.433 RFU | 
3 | CC(C)=CCC[C@](C)(O)[C@H]1CC[C@]2(C)[C@@H]1[C@H](O)C[C@@H]1[C@@]3(C)CC[C@H](O)C(C)(C)[C@@H]3[C@@H](O[C@@H]3O[C@H](CO)[C@@H](O)[C@H](O)[C@H]3O[C@@H]3O[C@@H](C)[C@H](O)[C@@H](O)[C@H]3O)C[C@]12C [Ginsenoside Rg2] | 1144.609 RFU | 
4 | C=C(CCC=C(C)C)[C@H]1CC[C@]2(C)[C@@H]1[C@H](O)C[C@@H]1[C@@]3(C)CC[C@H](O)C(C)(C)[C@@H]3[C@@H](O[C@@H]3O[C@H](CO)[C@@H](O)[C@H](O)[C@H]3O[C@@H]3O[C@@H](C)[C@H](O)[C@@H](O)[C@H]3O)C[C@]12C [Ginsenoside Rg6] | 737.5989 RFU | 
5 | CC(C)=CCC[C@](C)(O)[C@H]1CC[C@]2(C)[C@@H]1[C@H](O)C[C@@H]1[C@@]3(C)CC[C@H](O)C(C)(C)[C@@H]3[C@@H](O[C@@H]3O[C@H](CO)[C@@H](O)[C@H](O)[C@H]3O)C[C@]12C [Ginsenoside Rh1] | 665.2277 RFU | 
6 | CC1(C)CC[C@]2(C(=O)O[C@@H]3O[C@H](CO)[C@@H](O)[C@H](O)[C@H]3O)CC[C@]3(C)C(=CC[C@@H]4[C@@]5(C)CC[C@H](O[C@@H]6O[C@H](C(=O)O)[C@@H](O)[C@H](O)[C@H]6O[C@@H]6O[C@H](CO)[C@@H](O)[C@H](O)[C@H]6O)C(C)(C)[C@@H]5CC[C@]43C)[C@@H]2C1 [Ginsenoside Ro] | 1082.912 RFU | 
7 | COc1cc2c(cc1OC)-c1c(OC)c(OC)cc3c1[C@H](C2)N(C)CC3 [Glaucine] | 922.5844 RFU | 
8 | O=C([O-])[C@H](O)[C@@H](O)[C@H](O)[C@H](O)CO.[Na+] [Gluconate (sodium)] | 1019.914 RFU | 
9 | C[S+]([O-])CCCC/C(=N\OS(=O)(=O)O)S[C@@H]1O[C@H](CO)[C@@H](O)[C@H](O)[C@H]1O (stereo partly shown) [Glucoraphanin] | 983.9092 RFU | 
10 | CCCCCCCCCCCCC/C=C/[C@@H](O)[C@@H](N)CO[C@@H]1O[C@H](CO)[C@@H](O)[C@H](O)[C@H]1O [Glucosylsphingosine] | 955.6283 RFU | 
11 | O=C(O)CCCC(=O)O [Glutaric acid] | 944.8681 RFU | 
12 | COc1cc2c(=O)c(-c3ccc(O)cc3)coc2cc1O[C@@H]1O[C@H](CO)[C@@H](O)[C@H](O)[C@H]1O [Glycitin] | 799.4163 RFU | 
13 | C[C@H](CCC(=O)NCC(=O)O)[C@H]1CC[C@H]2[C@@H]3CC[C@@H]4C[C@H](O)CC[C@]4(C)[C@H]3CC[C@]12C [Glycolithocholic acid] | 1103.978 RFU | 
14 | NCC(=O)N[C@@H](CC(=O)O)C(=O)O [Glycyl-L-Aspartic] (H-Gly-Asp-OH) | 903.5873 RFU | 
15 | NCC(=O)N[C@@H](CCC(=O)O)C(=O)O [Glycyl-L-Glutamic Acid] (H-Gly-Glu-OH) | 846.2286 RFU | 
16 | NCC(=O)N1CCC[C@H]1C(=O)O [Glycyl-L-Proline] (H-Gly-Pro-OH) | 318.8964 RFU | significantly inhibited lipase activity
17 | CC(C)C[C@H](NC(=O)CN)C(=O)O [Glycyl-L-leucine] | 829.1827 RFU | 
18 | COc1cc([C@H]2c3cc(O)c(OC)cc3C[C@@H](C)[C@@H]2C)ccc1O [Guaiacin] | 808.3575 RFU | 
19 | C[C@H]1CC[C@@H](C(C)(C)O)CC2=C1CC[C@@H]2C [Guaiol] | 919.8918 RFU | 

Row | Compound | Lipase (RFU) | Hit in lipase inhibition screen (in words)
20 | Nc1nc2nc[nH]c2c(=O)[nH]1 [Guanine] | 909.1174 RFU | 
21 | Nc1nc2c(ncn2[C@@H]2O[C@@H]3COP(=O)(O)O[C@H]3[C@H]2O)c(=O)[nH]1 [Guanosine-3′,5′-cyclic monophosphate] | 813.7484 RFU and 1141.322 RFU | 
22 | CC[C@H](N)C(=O)O [H-Abu-OH] | 993.6587 RFU | 
23 | NCC(=O)N1CCC[C@H]1C(=O)O [H-Gly-Pro-OH] (H-Gly-Pro-OH) | 952.5324 RFU | 
24 | NC(N)=NCCCC[C@H](N)C(=O)O [H-HoArg-OH] | 745.4822 RFU | 
25 | N[C@@H](Cc1ccc(O)c(I)c1)C(=O)O [H-Tyr(3-I)-OH] | 847.3153 RFU | 
26 | COC(=O)C1=CO[C@@H](O[C@@H]2O[C@H](CO)[C@@H](O)[C@H](O)[C@H]2O)[C@@H]2[C@@H](C)CC(=O)[C@]12O [Hastatoside] | 738.976 RFU | 
27 | C[C@@H]1O[C@@H](O[C@H]2[C@H](O[C@H]3CC[C@]4(C)[C@H]5CC=C6[C@@H]7CC(C)(C)CC[C@]7(C(=O)O[C@@H]7O[C@H](CO[C@@H]8O[C@H](CO)[C@@H](O[C@@H]9O[C@@H](C)[C@H](O)[C@@H](O)[C@H]9O)[C@H](O)[C@H]8O)[C@@H](O)[C@H](O)[C@H]7O)CC[C@@]6(C)[C@]5(C)CC[C@H]4C3(C)C)OC[C@H](O)[C@@H]2O)[C@H](O)[C@H](O)[C@H]1O [Hederasaponin B] | 619.4985 RFU | 
28 | COc1ccc([C@@H]2CC(=O)c3c(O)cc(O[C@@H]4O[C@H](CO[C@@H]5O[C@@H](C)[C@H](O)[C@@H](O)[C@H]5O)[C@@H](O)[C@H](O)[C@H]4O)cc3O2)cc1O [Hesperidin] | 595.5734 RFU and 766.088 RFU | 
29 | COc1c(O)cc2oc(-c3ccc(O)cc3)cc(=O)c2c1O [Hispidulin] | 914.8964 RFU | 
30 | Cl.Cl.NCCc1c[nH]cn1 [Histamine (dihydrochloride)] | 1022.007 RFU | 
31 | COc1cc(CC(=O)O)ccc1O [Homovanillic acid] | 934.4466 RFU | 
32 | CN(C)CCc1ccc(O)cc1 [Hordenine] | 1057.467 RFU | 
33 | C/C=C/C=C/C=C\CC/C=C/C(=O)NCC(C)(C)O [Hydroxy-α-sanshool] | 984.0163 RFU | 
34 | COc1cc(O)c2c(=O)cc(-c3ccc(O)c(O)c3)oc2c1 [Hydroxygenkwanin] | 874.9866 RFU | 
35 | O=C(O)C(O)Cc1ccc(O)cc1 (stereo not shown) [Hydroxyphenyllactic acid] | 914.2115 RFU | 
36 | NCCS(=O)O [Hypotaurine] | 1147.047 RFU and 798.4494 RFU | 
37 | Cl.O=C(O)Cc1cnc[nH]1 [Imidazoleacetic acid (hydrochloride)] | 807.4109 RFU | 
38 | O=C1/C(=C2\Nc3ccc(S(=O)(=O)[O-])cc3C2=O)Nc2ccc(S(=O)(=O)[O-])cc21.[Na+].[Na+] [Indigo carmine] | 862.5624 RFU | 

Row | Compound | Lipase (RFU) | Hit in lipase inhibition screen (in words)
39 | OCc1c[nH]c2ccccc12 [Indole-3-carbinol] | 1082.489 RFU | 
40 | O=C(O)C(O)Cc1c[nH]c2ccccc12 (stereo not shown) [Indolelactic acid] | 641.0066 RFU | 
41 | C[C@H](CCC(=O)O)[C@H]1CC[C@H]2[C@@H]3CC[C@H]4C[C@@H](O)CC[C@]4(C)[C@H]3CC[C@]12C [Isoallolithocholic acid] | 881.405 RFU | 
42 | CC(C)C(=O)O[C@H](CC(=O)O)C[N+](C)(C)C.[Cl-] [Isobutyryl-L-carnitine (chloride)] | 1069.653 RFU | 
43 | O=C(/C=C/c1ccc(O)c(O)c1)O[C@@H]1CC(O)(C(=O)O)C[C@@H](OC(=O)/C=C/c2ccc(O)c(O)c2)C1O (stereo partly shown) [Isochlorogenic acid A] | 827.6093 RFU | 
44 | COc1ccc2c(=O)c(-c3ccc(O)cc3)coc2c1 [Isoformononetin] | 1355.098 RFU | 
45 | COc1cc2ccc(=O)oc2c(OC)c1O [Isofraxidin] | 929.2612 RFU | 
46 | COc1ccc(CC(=O)O)cc1O [Isohomovanillic acid] | 1060.172 RFU | 
47 | OC[C@H]1O[C@H](OC[C@H]2OC(O)[C@H](O)[C@@H](O)[C@@H]2O)[C@H](O)[C@@H](O)[C@@H]1O (stereo partly shown) [Isomaltose] | 1074.051 RFU | 
48 | COc1ccc([C@@H]2CC(=O)c3c(O)cc(O[C@@H]4O[C@H](CO)[C@@H](O)[C@H](O)[C@H]4O)cc3O2)cc1 [Isosakuranin] | 864.5248 RFU | 
49 | O=c1cc(-c2ccc(O)cc2)oc2c([C@@H]3O[C@H](CO)[C@@H](O)[C@H](O)[C@H]3O)c(O)c([C@@H]3OC[C@H](O)[C@H](O)[C@H]3O)c(O)c12 [Isoschaftoside] | 949.6414 RFU | 
50 | COc1cc(C2Oc3ccc([C@H]4Oc5cc(O)cc(O)c5C(=O)[C@@H]4O)cc3OC2CO)ccc1O (stereo partly shown) [Isosilybin] | 921.7702 RFU | 
51 | CC(C)CC(=O)O[C@H](CC(=O)[O-])C[N+](C)(C)C [Isovalerylcarnitine] | 737.2804 RFU | 
52 | O=c1cc(-c2ccc(O)cc2)oc2cc(O)c([C@@H]3O[C@H](CO)[C@@H](O)[C@H](O)[C@H]3O[C@@H]3OC[C@H](O)[C@H](O)[C@H]3O)c(O)c12 [Isovitexin 2″-O-arabinoside] | 1033.269 RFU | 
53 | C=C(CC(=O)O)C(=O)O [Itaconic Acid] | 944.0433 RFU | 
54 | COc1cc(-c2cc(=O)c3c(O)c(OC)c(O)cc3o2)ccc1O [Jaceosidin] | 614.7008 RFU | 
55 | CC(C)=C[C@H]1C[C@](C)(O)[C@@H]2[C@H]3CC[C@@H]4[C@@]5(C)CC[C@H](O[C@@H]6OC[C@H](O)[C@H](O[C@@H]7O[C@H](CO)[C@@H](O)[C@H](O)[C@H]7O[C@@H]7OC[C@@H](O)[C@H](O)[C@H]7O)[C@H]6O[C@@H]6O[C@@H](C)[C@H](O)[C@@H](O)[C@H]6O)C(C)(C)[C@@H]5CC[C@@]4(C)[C@@]34CO[C@@]2(C4)O1 [Jujuboside B] | 877.6814 RFU | 
56 | O=c1c(O[C@@H]2O[C@H](CO[C@@H]3O[C@H](CO)[C@@H](O)[C@H](O)[C@H]3O)[C@@H](O)[C@H](O)[C@H]2O)c(-c2ccc(O)cc2)oc2cc(O)cc(O)c12 [Kaempferol 3-O-gentiobioside] | 1150.858 RFU | 
57 | O=c1c(O[C@@H]2O[C@H](CO)[C@@H](O)[C@H](O)[C@H]2O[C@@H]2O[C@H](CO)[C@@H](O)[C@H](O)[C@H]2O)c(-c2ccc(O)cc2)oc2cc(O)cc(O)c12 [Kaempferol 3-O-sophoroside] | 867.3846 RFU | 
